Test results published in patent publication EP4324461A1, “(E)-N-CINAMOYLAMINOALKANOLES WITH MELANOGENESIS INHIBITORY ACTIVITY” (UNIWERSYTET JAGIELLONSKI, priority 2022, dated 2024).

Experiments:
Fibroblasts (BJ) = test: Safety, LDH test in fibroblasts; type: cell-based; conditions: 48 hours, positive control Triton X-100
Description: In order to test the safety of the compounds, both normal human cells were used: keratinocytes (HaCaT), fibroblasts (BJ), primary melanocytes that occur in the skin, as well as human cancer cells: the hepatocarcinoma line HepG2 and the neuroblastoma line SH-SY5Y, which are considered a model for the assessment of hepatocytotoxicity and neurocytotoxicity. The concentrations of the tested compounds in the range of 250-100 µM were used in the studies. The cell lines used in the research were purchased from the American Type Culture Collection (ATCC) and were cultured in media recommended by the manufacturer with the addition of FBS and antibiotics in an incubator ensuring appropriate culture conditions, i.e. humidity, temperature and CO2 concentration. Cells were seeded into multiwell plates and incubated with the test compounds for 48 hours. After this time, MTT and LDH tests were performed to assess cell viability. The MTT test is based on the ability to transform the substrate: [3-(4,5-dimethyl-2-thiazolyl)-2,5-diphenyl-2H-tetrazolium bromide into a colored product only by living cells. The absorbance at 570 nm, which corresponds to the absorption maximum for the product, is directly proportional to cell viability. The LDH test is based on testing the activity of the enzyme lactate dehydrogenase in the culture medium, which is released from cells as a result of damage to the cell membrane, e.g. as a result of cell death. Triton X-100 was used as a positive control in the test. The determination is colorimetric, the substrate is transformed by the released enzyme into a colored product, an increase in absorbance indicates a larger amount of the released enzyme, and thus confirms greater damage to cell membranes. Tables 7 and 8 present the results obtained, which correspond to the viability of cells incubated with the compounds in relation to the viability of cells constituting a control sample, i.e. incubated with the solvent (DMSO) at the same concentration as in the case of the groups tested in the MTT test or in relation to the results obtained for the Triton X-100 positive control in the LDH test. They indicate that the compounds are safe at the concentrations tested. Table 7. Viability of tested normal human cell lines: keratinocytes (HaCaT), fibroblasts (BJ) and primary melanocytes after incubation with the tested compounds - determination in the MTT test (% of solvent control ± SD) and LDH (percentage of positive control - Triton X-100.

E. coli WP2 = test: Ames microplate test, E. coli WP2;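 also: bacteria treated 90 min at 37 °C in 24-well plates, then indicator medium dispensed to 384-well plates and incubated 48 h before yellow-well counting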
[1] = tested on: reconstructed human epidermis containing melanocytes MelanoDerm™ MEL-300-B; test: Melanogenesis inhibition in reconstructed human epidermis containing melanocytes (MelanoDerm); type: cell-based; conditions: 1.0% in 50% PEG (10 µL), 14 days
Description: (§1) The research was carried out on reconstructed human epidermis containing melanocytes MelanoDerm™ MEL-300-B from MatTek (Bratislava, Slovakia). The ratio of keratinocytes to melanocytes in the epidermis used is 10:1. Only medium purchased from the same manufacturer (EPI-100-NMM-113) was used to culture the epidermis during the experiments. Once the epidermis was obtained, it was transferred to 12-well plates containing 5 mL of medium/well. Plates were used to enable proper contact of the lower parts of the inserts with the substrate (so-called hanging-top plate). Solutions of the compounds were prepared immediately before their application. The solutions were applied to the inserts using a positive displacement pipette and then distributed using a sterile glass bulb headed Pasteur pipette. The application was repeated every 48 hours, a total of 7 applications were performed. Before the next application, each insert was rinsed with sterile DPBS and dried with a sterile cotton buds. The application was also accompanied by a change of the medium. […] The epidermis was cultured in an incubator ensuring appropriate humidity, temperature (37 °C) and CO2 concentration (5%).
The experiment was conducted for 14 days. After this time, the inserts were rinsed with DPBS and dried with a cotton swab. For the selected pool of inserts, tissue viability was assessed using the MTT (Thiazolyl Blue Tetrazolium bromide) test, the remaining ones were used to determine the amount of melanin. To assess viability, the inserts were transferred to 24-well plate containing 0.3 mL of DMEM medium with 1 mg/mL MTT and incubated for 3 hours in an incubator. The epidermis was then placed in 2 mL of isopropanol and the resulting formazan was extracted for 2 hours at room temperature. The absorbance of the samples was measured at 570 nm in a microplate reader and correlated with the absorbance of the control by the formula: % Viability = [OD (570 nm) for test compound/OD (570 nm) for control] × 100. To determine the amount of melanin, the inserts were incubated in 5% sodium bicarbonate for 30 min, then dried and placed in 0.5 mL of Solvable™ reagent, which caused complete lysis of the epidermis. After heating at 95 °C, the absorbance of the samples was measured at 405 nm in a microplate reader. On this basis, the reduction in the amount of melanin was calculated in relation to the control sample. The absorbance results were also correlated with a standard curve for synthetic melanin. […] Table 5. Viability and melanin content in the MelanoDerm epidermis after application of the tested samples, calculated on the basis of absorbance measurements.
as §1, with “Only media” for “Only medium”, “cotton bud.” for “cotton buds.”
The experiment was conducted for 14 days. After this time, the inserts were rinsed with DPBS and dried with a cotton bud. […]

[2] = tested on: Chinese hamster ovary cell line (CHO-K1); test: Genotoxicity in the micronucleus test in CHO-K1 cells; type: cell-based
S. typhimurium TA1535 = test: Ames microplate test, TA1535;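 also: bacteria exposed to compound 90 min at 37 °C, then kept 48 h at 37 °C with indicator medium in 384-well plates, scoring wells that turned yellow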

Question: For `O=C(/C=C/c1ccccc1)NCCCCCO` [Compound A-133, (2E)-N-(5-hydroxypentyl)-3-phenylprop-2-enamide], which “Fibroblasts (BJ) LDH” value (Fibroblasts (BJ); 100 µM) is on record?
Answer: The value was 5.00 percentage of positive control.

Question: And the “Fibroblasts (BJ) LDH” value (Fibroblasts (BJ); 150 µM)?
Answer: The value was 4.47 percentage of positive control.

Question: What about the “Fibroblasts (BJ) LDH” value (Fibroblasts (BJ); 200 µM) of the same compound?
Answer: Its value is 14.72 percentage of positive control.

Question: And the “Fibroblasts (BJ) LDH” value (Fibroblasts (BJ); 250 µM)?
Answer: Its value is 28.31 percentage of positive control.

Question: What about the “Increase in the number of yellow wells compared to the reference level” value (shortened to “Increase in the number of yellow wells”) (E. coli WP2; 0.5 mM, +S9) of the same compound?
Answer: The value was 0.27.

Question: What about the “Increase in the number of yellow wells” value (E. coli WP2; 0.5 mM, without S9) of the same compound?
Answer: The value was 0.73.

Question: What about the “Increase in the number of yellow wells” value (E. coli WP2; 1.0 mM, +S9) of the same compound?
Answer: The value was 0.44.

Question: What about the “Increase in the number of yellow wells” value (E. coli WP2; 1.0 mM, without S9) of the same compound?
Answer: Its value is 0.37.

Question: What about the “Increase in the number of yellow wells” value (E. coli WP2; 2.0 mM, +S9) of the same compound?
Answer: Its value is 0.53.

Question: And the “Increase in the number of yellow wells” value (E. coli WP2; 2.0 mM, without S9)?
Answer: Its value is 1.10.

Question: What about the “Melanin content [% control, mean ± SD]” value ([1]; 7 applications) of the same compound?
Answer: Its value is 98.62±9.47 % control.

Question: What about the “Viability [% control, mean ± SD]” value ([1]; MTT) of the same compound?
Answer: The value was 101.22±6.52 % control.

Question: What about the “DB (dicentric bridges in 1000 binucleate cells)” value (shortened to “DB”) ([2]; 100 µM) of the same compound?
Answer: The value was 3.8 ± 2.8.

Question: And the “MN (number of micronuclei in 1000 binucleate cells)” value (from here on “MN”) ([2]; 100 µM)?
Answer: The value was 7.8 ± 2.9.

Question: And the “NB (nuclear buds in 1000 binucleate cells)” value (“NB” for short) ([2]; 100 µM)?
Answer: Its value is 6.3 ± 3.7.

Question: What about the “NDI (nuclear division index)” value ([2]; 100 µM) of the same compound?
Answer: Its value is 1.64.

Question: What about the “DB” value ([2]; 150 µM) of the same compound?
Answer: Its value is 3.7 ± 2.3.

Question: What about the “MN” value ([2]; 150 µM) of the same compound?
Answer: Its value is 6.0 ± 1.9.

Question: What about the “NB” value ([2]; 150 µM) of the same compound?
Answer: Its value is 4.5 ± 3.3.

Question: And the “NDI (nuclear division index)” value ([2]; 150 µM)?
Answer: Its value is 1.65.

Question: What about the “DB” value ([2]; 200 µM) of the same compound?
Answer: The value was 3.3 ± 1.4.

Question: What about the “MN” value ([2]; 200 µM) of the same compound?
Answer: The value was 6.8 ± 3.2.

Question: What about the “NB” value ([2]; 200 µM) of the same compound?
Answer: The value was 4.7 ± 1.8.

Question: And the “NDI (nuclear division index)” value ([2]; 200 µM)?
Answer: The value was 1.66.

Question: And the “Increase in the number of yellow wells” value (S. typhimurium TA1535; 0.5 mM, +S9)?
Answer: Its value is 0.47.

Question: And the “Increase in the number of yellow wells” value (S. typhimurium TA1535; 0.5 mM, without S9)?
Answer: The value was 0.92.

Question: What about the “Increase in the number of yellow wells” value (S. typhimurium TA1535; 1.0 mM, +S9) of the same compound?
Answer: Its value is 0.23.

Question: And the “Increase in the number of yellow wells” value (S. typhimurium TA1535; 1.0 mM, without S9)?
Answer: Its value is 0.55.

Question: And the “Increase in the number of yellow wells” value (S. typhimurium TA1535; 2.0 mM, +S9)?
Answer: The value was 0.35.

Question: And the “Increase in the number of yellow wells” value (S. typhimurium TA1535; 2.0 mM, without S9)?
Answer: Its value is 1.10.
